According to patent publication US20230219978A1, “COMPOUND HAVING MACROCYCLIC STRUCTURE AND USE THEREOF” (SCINNOHUB PHARMACEUTICAL CO., LTD, priority 2020, published 2023):

Assays:
Assay type in all cases: biochemical
RET wt = molecular target: T1, RET wt (Homo sapiens, UniProt P07949); assay: In vitro kinase activity assay (mobility shift assay), RET wild type; conditions: ATP 16 μM, reaction time 60 min
T1 construct: purchased Carna 08-159
How it was run: (§1)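 Compounds: 10-point 3-fold series starting 1000 nM, preincubated 10 min RT with kinase; ATP + substrate then added, 30-240 min RT. Caliper conversion read, normalised to no-enzyme and no-compound controls, dose-response fit gives IC50.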

TRKa = molecular target: T2, TRKa (Homo sapiens, UniProt P04629); assay: In vitro kinase activity assay (mobility shift assay), TRKa; conditions: ATP 47.8 μM, reaction time 30 min
T2 construct: purchased Carna 08-186
T2 sequence (P04629 33-796): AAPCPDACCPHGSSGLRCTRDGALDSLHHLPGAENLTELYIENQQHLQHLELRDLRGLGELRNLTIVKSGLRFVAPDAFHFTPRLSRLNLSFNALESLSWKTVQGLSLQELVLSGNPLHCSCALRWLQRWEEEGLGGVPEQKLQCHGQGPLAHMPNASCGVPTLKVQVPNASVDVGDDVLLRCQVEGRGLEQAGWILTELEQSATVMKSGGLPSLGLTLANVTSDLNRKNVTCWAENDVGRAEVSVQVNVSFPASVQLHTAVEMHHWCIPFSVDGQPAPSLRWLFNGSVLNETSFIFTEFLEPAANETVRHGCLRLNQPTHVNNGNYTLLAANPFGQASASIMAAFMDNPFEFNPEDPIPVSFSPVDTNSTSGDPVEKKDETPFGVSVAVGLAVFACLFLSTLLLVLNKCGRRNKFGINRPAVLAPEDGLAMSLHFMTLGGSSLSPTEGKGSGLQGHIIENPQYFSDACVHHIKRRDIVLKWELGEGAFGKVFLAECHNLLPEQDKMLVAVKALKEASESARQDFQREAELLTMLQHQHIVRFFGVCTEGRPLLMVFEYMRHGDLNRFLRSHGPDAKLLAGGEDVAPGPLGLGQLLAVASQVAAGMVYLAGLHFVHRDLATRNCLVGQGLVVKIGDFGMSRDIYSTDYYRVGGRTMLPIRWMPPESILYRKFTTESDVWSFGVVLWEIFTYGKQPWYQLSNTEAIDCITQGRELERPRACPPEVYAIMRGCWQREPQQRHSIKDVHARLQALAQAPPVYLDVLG
Protocol: (§2) The IC50 (half inhibitory concentration) values of the compounds were used as an indicator to evaluate the inhibitory effect of the compound on RET wild-type, RET mutant, TRKa, SRC, BTK and/or mutated BTK kinase.
(§3) Using the method of Mobility shift assay, the compounds were tested for inhibitory activity against the following kinases: RET wild type, RET mutant, TRKa, SRC, BTK and/or mutated BTK. The initial concentration of the test compound was 1000 nM, 3-fold dilution, 10 concentrations, detected in a well for each concentration.
(§4) 20 mM hydroxyethylpiperazineethanesulfonic acid (Hepes) (pH 7.5) buffer, 10 mM MgCl2, 1 mM ethylene glycol bis(aminoethyl ether)tetraacetic acid (EGTA), 0.02% polyoxyethylene lauryl ether (Brij35), 0.02 mg/ml […] (BSA), 0.1 mM Na3VO4, 2 mM dithiothreitol (DTT), 1% DMSO.
(§5) The test compounds were dissolved in 100% dimethyl sulfoxide (DMSO) system, and prepared as 10 mM for use, and stored in a nitrogen cabinet away from light.
(§6) • (1) Preparing 1× kinase reaction buffer. • (2) Preparation of compound concentration gradient: the initial concentration of the compounds was 1000 nM, which was diluted as 100-fold final concentration of solution in 100% dimethyl sulfoxide (DMSO) in a 384-well plate. The compound was accurately 3-fold diluted with the kinase buffer solution, 10 concentrations in total, and the final concentration was 0.0508 nM. The 100-fold final concentration of solution in 100% dimethyl sulfoxide (DMSO) was obtained by dilution in 384 source plate. The liquid separator Echo 550 was used to transfer 250 nl of 100-fold final concentration of compound to the target 384 well plate. 250 nl of DMSO was added to the positive and negative control wells. • (3) 2.5-fold final concentration of kinase solution was prepared by the 1× kinase buffer. • (4) 10 4, of 2.5-fold final concentration of kinase solution was added to the compound well and the positive control well, respectively; 10 4, of 1× kinase buffer was added to the negative control well. • (5) After centrifuging at 1000 rpm for 30 second, the reaction plate was shaken and mixed, followed by incubation at room temperature for 10 min. • (6) a mixed solution of 25/15-fold final concentration of adenosine triphosphate (ATP) and kinase substrate was prepared by 1× kinase buffer. • (7) The mixed solution (15 μL) of 25/15-fold final concentration of adenosine triphosphate (ATP) and substrate was added to initiate the reaction. • (8) 384-well plate was centrifuged at 1000 rpm for 30 second, shaken and mixed well, and then incubated at room temperature for 30-240 min. • (9) After stopping the kinase reaction, the plate was centrifugated at 1000 rpm for 30 second, shaken and mixed well. • (10)The conversion rate was read with Caliper EZ Reader.
(§7) wherein Conversion%_sample is the conversion rate reading of the sample; Conversion%_min: the mean value of negative control wells, representing the conversion rate reading of wells without enzymes; Conversion%_max: the mean value of positive control wells, representing the conversion rate reading of wells without compound inhibition.
(§8) The log value of concentration was taken as the X axis, and the percentage inhibition rate was taken as the Y axis. Graphpad 6.0 analysis software was used to fit the dose-response curve, so as to obtain the IC50 value of each compound on the enzyme activity

BTK C481S = molecular target: T3, BTK C481S (Homo sapiens, UniProt Q06187, C481S); assay: In vitro kinase activity assay (mobility shift assay), BTK C481S; conditions: ATP 90 μM, reaction time 30 min
T3 construct: purchased Carna 08-547
T3 sequence (Q06187 whole entry C481S): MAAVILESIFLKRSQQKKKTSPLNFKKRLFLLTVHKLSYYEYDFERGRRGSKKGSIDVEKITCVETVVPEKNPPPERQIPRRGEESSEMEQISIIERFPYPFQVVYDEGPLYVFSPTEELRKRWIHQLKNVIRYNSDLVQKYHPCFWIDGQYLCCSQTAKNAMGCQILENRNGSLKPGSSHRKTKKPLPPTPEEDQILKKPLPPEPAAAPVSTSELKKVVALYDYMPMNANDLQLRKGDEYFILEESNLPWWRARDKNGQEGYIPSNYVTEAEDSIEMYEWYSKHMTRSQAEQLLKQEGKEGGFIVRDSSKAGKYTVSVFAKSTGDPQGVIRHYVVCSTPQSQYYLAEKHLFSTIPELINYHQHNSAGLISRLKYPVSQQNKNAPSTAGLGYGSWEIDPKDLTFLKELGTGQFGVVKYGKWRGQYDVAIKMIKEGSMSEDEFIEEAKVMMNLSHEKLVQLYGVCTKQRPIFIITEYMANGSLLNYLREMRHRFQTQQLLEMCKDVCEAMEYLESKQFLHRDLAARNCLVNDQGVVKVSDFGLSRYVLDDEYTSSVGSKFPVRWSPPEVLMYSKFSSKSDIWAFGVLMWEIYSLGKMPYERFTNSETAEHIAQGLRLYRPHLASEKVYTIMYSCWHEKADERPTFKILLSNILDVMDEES
Protocol: as §2, §3, §4, §5, §6, §7, §8

BTK = molecular target: T4, BTK (Homo sapiens, UniProt Q06187); assay: In vitro kinase activity assay (mobility shift assay), BTK; conditions: ATP 71 μM, reaction time 30 min
T4 construct: purchased Carna 08-180
T4 sequence (Q06187 whole entry): as the sequence (Q06187 whole entry C481S) above, with S481C counted along it
Protocol: as §2, §3, §4, §5, §6, §7, §8

RET G810R = molecular target: T5, RET G810R (Homo sapiens, UniProt P07949, G810R); assay: In vitro kinase activity assay (mobility shift assay), RET G810R; conditions: ATP 201 μM, reaction time 4 h
T5 construct: purchased Proqinase 1724-0000-1
T5 sequence (P07949 29-1114 G810R): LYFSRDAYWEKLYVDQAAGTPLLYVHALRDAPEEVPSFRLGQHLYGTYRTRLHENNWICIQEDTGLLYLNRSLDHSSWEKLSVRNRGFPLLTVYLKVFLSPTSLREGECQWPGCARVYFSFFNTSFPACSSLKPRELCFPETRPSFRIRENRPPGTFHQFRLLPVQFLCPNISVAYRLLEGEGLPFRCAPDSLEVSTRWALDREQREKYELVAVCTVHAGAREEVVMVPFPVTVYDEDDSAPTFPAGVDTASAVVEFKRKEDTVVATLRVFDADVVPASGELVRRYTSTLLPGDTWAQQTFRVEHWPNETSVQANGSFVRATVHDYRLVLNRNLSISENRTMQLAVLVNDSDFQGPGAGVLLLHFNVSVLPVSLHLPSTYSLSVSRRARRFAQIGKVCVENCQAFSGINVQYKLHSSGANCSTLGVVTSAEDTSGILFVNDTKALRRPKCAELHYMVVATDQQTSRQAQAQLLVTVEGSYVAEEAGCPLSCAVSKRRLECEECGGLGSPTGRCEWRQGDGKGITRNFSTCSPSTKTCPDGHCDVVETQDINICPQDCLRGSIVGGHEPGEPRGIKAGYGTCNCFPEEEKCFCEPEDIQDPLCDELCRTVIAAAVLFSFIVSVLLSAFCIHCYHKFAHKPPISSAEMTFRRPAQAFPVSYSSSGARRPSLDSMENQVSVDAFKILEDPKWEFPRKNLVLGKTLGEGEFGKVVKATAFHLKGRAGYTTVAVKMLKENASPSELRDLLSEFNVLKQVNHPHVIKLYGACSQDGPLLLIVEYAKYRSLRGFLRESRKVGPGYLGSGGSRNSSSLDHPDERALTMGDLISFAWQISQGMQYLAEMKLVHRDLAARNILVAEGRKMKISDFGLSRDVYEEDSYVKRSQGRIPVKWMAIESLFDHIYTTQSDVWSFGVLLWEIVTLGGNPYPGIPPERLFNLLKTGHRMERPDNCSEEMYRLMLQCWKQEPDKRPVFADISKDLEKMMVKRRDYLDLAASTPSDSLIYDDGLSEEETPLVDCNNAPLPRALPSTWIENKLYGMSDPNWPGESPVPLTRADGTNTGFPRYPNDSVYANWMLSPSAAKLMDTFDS
How it was run: as §1

RET V804M = molecular target: T6, RET V804M (Homo sapiens, UniProt P07949, V804M); assay: In vitro kinase activity assay (mobility shift assay), RET V804M; conditions: ATP 5.4 μM, reaction time 60 min
T6 construct: purchased signalchem R02-12GG
T6 sequence (P07949 29-1114 V804M): as the sequence (P07949 29-1114 G810R) above, with V776M, R782G counted along it
Protocol: as §2, §3, §4, §5, §6, §7, §8

T1 sequence (P07949 29-1114): as the sequence (P07949 29-1114 G810R) above, with R782G counted along it

IC50 (RET wt) [nM]	IC50 (TRKa) [nM]	IC50 (BTK C481S) [nM]	IC50 (BTK) [nM]	IC50 (RET G810R) [nM]	IC50 (RET V804M) [nM]	SMILES
22	> 10000	54.8				C[C@H]1CNC(=O)c2cnn3cc(-c4cccc(Cl)c4)c(nc23)NCc2cc(F)cnc2O1 [Compound 3, (S, 1^3E, 1^4E)-1^6-(3-chlorophenyl)-4^5-fluoro-6-methyl-5-oxa-2,8-diaza-1(5,3)-pyrazolo[1,5-a]pyrimidina-4(3,2)-pyridinacyclononaphan-9-one]
8.2	> 10000	13	25.9			C[C@H]1CNC(=O)c2cnn3cc(-c4ccc(Cl)cc4)c(nc23)NCc2cc(F)cnc2O1 [Compound 9, (S, 1^3E, 1^4E)-1^6-(4-chlorophenyl)-4^5-fluoro-6-methyl-5-oxa-2,8-diaza-1(5,3)-pyrazolo[1,5-a]pyrimidina-4(3,2)-pyridinacyclononaphan-9-one]
< 0.51		15	9.2	9.3	1.3	COC(=O)Nc1ccc(-c2c3nc4c(cnn4c2N)C(=O)NC[C@H](C)Oc2ncc(F)cc2CN3)cc1 [Compound 49, methyl (4-((S, 1^3E, 1^4E)-1^7-amino-4^5-fluoro-6-methyl-9-oxo-5-oxa-2,8-diaza-1(5,3)-pyrazolino [1,5-a]pyrimidin-4(3,2)-pyridinacyclononaphan-1^6-yl)-phenyl)carbamate]
323		> 1000	> 1000	> 1000	> 1000	Cc1nn2c(N)c(-c3ccccc3)c3nc2c1C(=O)NC[C@H](C)Oc1ncc(F)cc1CN3 [Example 74, (S, 1^3E, 1^4E)-1^7-amino-4^5-fluoro-1^2,6-dimethyl-1^6-phenyl-5-oxa-2,8-diaza-1(5,3)-pyrazolo[1,5-a]pyrimidinyl-4(3,2)-pyridinacyclononaphan-9-one]
20		52	22	> 1000	311	C[C@H]1CN(C)C(=O)c2cnn3c(N)c(-c4ccccc4)c(nc23)NCc2cc(F)cnc2O1 [Example 75, (S, 1^3E, 1^4E)-1^7-amino-4^5-fluoro-6,8-dimethyl-1^6-phenyl-5-oxo-2,8-diaza-1(5,3)-pyrazolo[1,5-a]pyrimidin-4(3,2)-pyridinacyclononaphan-9-one]
922		> 1000	> 1000	> 1000	> 1000	C[C@H]1CNC(=O)c2c(Br)nn3c(N)c(-c4ccccc4)c(nc23)NCc2cc(F)cnc2O1 [Example 76, (S, 1^3E, 1^4E)-1^2-bromo-1^6-phenyl-1^7-amino-4^5-fluoro-6-methyl-5-oxa-2,8-diaza-1(5,3)-pyrazolo[1,5-a]pyrimidinyl-4(3,2)-pyridinacyclononaphan-9-one]
> 1000		> 1000	> 1000	> 1000	> 1000	C[C@H]1CNC(=O)c2c(C#N)nn3c(N)c(-c4ccccc4)c(nc23)NCc2cc(F)cnc2O1 [Example 77, (S, 1^3E, 1^4E)-1^2-cyano-1^6-phenyl-1^7-amino-4^5-fluoro-6-methyl-5-oxa-2,8-diaza-1(5,3)-pyrazolo[1,5-a]pyrimidinyl-4(3,2)-pyridinacyclononaphan-9-one]
2.5		1.7	1.7	337	24	Nc1c(-c2ccccc2)c2nc3c(cnn13)C(=O)NC1CCCC1Oc1ncc(F)cc1CN2 (stereo not drawn) [Example 78, (6^3E, 6^4E)-6^7-amino-1^5-fluoro-6^6-phenyl-2-oxo-4,7-diaza-6(3,5)-pyrazolo[1,5-a]pyrimidin-1(2,3)-pyridin-3(1, 2)-cyclopentanacyclooctaphan-5-one]
104		97	45	> 1000	> 1000	Nc1c(-c2ccccc2)c2nc3c(cnn13)C(=O)N1CCCC1COc1ncc(F)cc1CN2 (stereo not drawn) [Example 79]
